Results: ChEMBL document CHEMBL1140126, “Optimizing natural products by biosynthetic engineering: discovery of nonquinone Hsp90 inhibitors” (J Med Chem, 2008)
Values after ≈ are worked out from the molar mass of the structure shown.

Assays:
Mus musculus [1] = experiment: Toxicity in NMRI nu/nu mouse assessed as body weight loss at 250 mg/kg/day for 5 days; type: organism-based; details: in vivo, 120 h
[2] = Toxicity in NMRI nu/nu mouse assessed as maximum tolerated dose; type: organism-based; details: in vivo
Mus musculus [3] = experiment: Toxicity in nude mouse xenografted with human MAXF401 cells assessed as median body weight loss at 85 mg/kg/day, ip; type: organism-based; design: route intraperitoneal; details: in vivo
[4] = Solubility at room temperature after 6 hrs by HPLC; type: physicochemical
Mus musculus [5] = experiment: Toxicity in nude mouse xenografted with human MAXF401 cells assessed as median body weight loss on day 21 at 50 mg/kg/day, ip; type: organism-based; design: route intraperitoneal; details: in vivo
[6] = Antitumor activity against human MAXF401 cells xenografted in nude mouse assessed as inhibition of tumor growth at 42.5 mg/kg/day, ip administered alternately for 5 days with 3 days intervals assessed on day 21; type: functional; details: route intraperitoneal
[7] = Antitumor activity against human MAXF401 cells xenografted in nude mouse assessed as inhibition of tumor growth at 85 mg/kg/day, ip administered alternately for 5 days with 3 days intervals assessed on day 35; type: functional; details: route intraperitoneal
[8] = Antitumor activity against human MAXF401 cells xenografted in nude mouse assessed as inhibition of tumor growth at 50 mg/kg/day, ip administered alternately for 5 days with 3 days intervals assessed on day 28; type: functional; details: route intraperitoneal
[9] = Binding affinity to yeast HSP90; design: species or system Saccharomyces cerevisiae

CO[C@H]1C[C@H](C)Cc2cc(O)cc(c2)NC(=O)/C(C)=C/CC[C@H](C)[C@@H](OC(N)=O)/C(C)=C/[C@H](C)[C@H]1O
Activity (Mus musculus [1]): 3.8% | MTD [2]: ≥ 250 mg/kg | Activity (Mus musculus [3]): 3.2% | solubility at 6 h [4]: > 200 µM | Activity (Mus musculus [5]): 4.4% | T/C [6]: 53.9% | T/C [7]: 45.3% | T/C [8]: 35.6%

CO[C@H]1C[C@H](C)[C@@H](O)c2cc(O)cc(c2)NC(=O)/C(C)=C/CC[C@H](C)[C@@H](OC(N)=O)/C(C)=C/[C@H](C)[C@H]1O
Kd [9]: 6 nM

CO[C@H]1[C@@H](OC)C[C@H](C)[C@@H](OC)C2=CC(=O)C=C(NC(=O)/C(C)=C/C=C\[C@H](C)[C@@H](OC(N)=O)/C(C)=C/[C@@H]1C)C2=O [MACBECIN]
solubility at 6 h [4]: 81 µM (≈ 45.3 µg/mL)

C=CCNC1=C2C[C@@H](C)C[C@H](OC)[C@H](O)[C@@H](C)/C=C(\C)[C@H](OC(N)=O)[C@@H](OC)/C=C\C=C(/C)C(=O)NC(=CC1=O)C2=O [TANESPIMYCIN]
MTD [2]: 50 mg/kg
